In US6482802B1 (Endowment for Research in Human Biology, Inc., priority 1998, dated 2002):
Values joined by “and” are separate entries in the source; they are usually repeats but may differ in a detail not shown here. Equal entries are not always repeated. “Also recorded” adds a separate entry of the source.

Experiments:
[1] = tested on: chorioallantoic membrane (CAM) of chick embryos; test: CAM assay, bFGF-induced angiogenesis; format: in vivo; details: bFGF 10 ng alone
Protocol: (§1) Angiogenesis was measured on the CAM by the method of Knighton et al. (Knighton et al., 1977, Br. J. Cancer 35:347-356) essentially as described (Fett et al., 1985, Biochemistry 24:5480-5486). Fertilized chicken eggs were kept at 18° C. for 2 days and then incubated in a humidified environment at 37° C. for 3 days. Albumin was aspirated from the embryos and after 24 hours, a “window” was cut through the shell and covered with clear tape. […] After 48-68 hours at 37° C., the growth of blood vessels was observed microscopically and recorded as either positive or negative. A positive response (i.e., an angiogenic response) has a typical “spokewheel” appearance.

[2] = tested on: chorioallantoic membrane (CAM) of chick embryos; test: CAM assay, VEGF-induced angiogenesis; format: in vivo; details: VEGF 10 ng alone
Protocol: as §1

HUVE cells [3] = test: Angiogenin-induced proliferation of HUVE cells; format: cell-based, human; details: for inhibition of angiogenin-induced cell proliferation: aminoglycoside 100 μM (Table 3); for Cell number / percent of cell number in the presence of 1 μg/ml angiogenin relative to the corresponding control: aminoglycoside 100 μM; for percent of cell number in the presence of 1 μg/ml angiogenin relative to the corresponding control: none: 120
Protocol: (§2) HUVE cells were seeded at 4×10^3 cells/cm^2 in attachment factor (Cell Systems Corp.)-coated 35 mm dishes in HE-SFM, and incubated with 1 μg/ml angiogenin in the presence or absence of inhibitors at 37° C. for 48 hr. Cell were detached by trypsinization and cell numbers were determined with a Coulter counter.

[4] = tested on: chorioallantoic membrane (CAM) of chick embryos; test: CAM assay, angiogenin-induced angiogenesis; format: in vivo; details: for inhibition of angiogenin-induced angiogenesis in CAM assay: in vivo
Protocol: as §1

HUVE cells [5] = test: Cytotoxicity against HUVE cells; format: cell-based, human; details: concentration not given
Protocol: Human umbilical vein endothelial (HUVE) cells were purchased from Cell Systems Corp. (Kirkland, Wash.). […] Cells between passages 5 and 12 inclusive were used for all experiments. Cell numbers were determined with a Coulter counter, and cell viability was measured by trypan blue dye exclusion assay.

HUVE cells [6] = test: bFGF-induced proliferation of HUVE cells, aminoglycoside antibiotics; format: cell-based, human; details: aminoglycoside 100 μM; for % Inhibition of bFGF-induced cell proliferation / bFGF (10 ng/ml) Cell Numbers: bFGF 10 ng/ml; for bFGF (10 ng/ml) Cell Numbers / Control (cell number without bFGF): 48 hr; for bFGF (10 ng/ml) Cell Numbers: control 99000 ± 1000; for Control (cell number without bFGF): no bFGF, control 61300 ± 500
Protocol: as §2
The ability of the other members of the aminoglycoside antibiotic family to inhibit bFGF-induced proliferation of HUVE cells was examined in a similar manner as for angiogenin as described in Section 6.1.1.5, above. HUVE cells, passage 9, were seeded on attachment-factor coated dishes at 50,000 cells per 35 mm dish in HE-SFM. Aminoglycoside antibiotics were added and the cells were incubated with or without […] at 37° C. for 48 hr.

[7] = tested on: chorioallantoic membrane (CAM) of chick embryos; test: CAM assay, aFGF-induced angiogenesis; format: in vivo; details: aFGF 10 ng alone
Protocol: as §1

[8] = tested on: nuclear translocation of 125I-angiogenin in HUVE cells; test: Nuclear translocation of 125I-angiogenin in HUVE cells; details: for effect on nuclear translocation of 125I-angiogenin: HUVE cells, concentrations as in Table 1; for Nuclear 125I-angiogenin: 37° C. 30 min, control 3090 ± 260; for Nuclear 125I-angiogenin / % inhibition of nuclear translocation of angiogenin: 125I-angiogenin 1 μg/ml 30 min
[9] = tested on: chorioallantoic membrane (CAM) of chick embryos; test: CAM assay, EGF-induced angiogenesis; format: in vivo; details: EGF 10 ng alone
Protocol: as §1

[10] = with angiogenin 1 μg/ml, none: 62,500 ± 100
[11] = without angiogenin, none: 52,000 ± 100

bFGF: basic fibroblast growth factor was tested, and the Positive eggs ([1]; 37 total eggs) was 29 and the “% Positive” value ([1]; water 21) was 78%.

With VEGF the Positive eggs ([2]; 27 total eggs) was 17 and the “% Positive” value ([2]; water 21) was 63%.

With `NCC[C@H](O)C(=O)N[C@@H]1C[C@H](N)[C@@H](O[C@H]2O[C@H](CN)[C@@H](O)[C@H](O)[C@H]2O)[C@H](O)[C@H]1O[C@H]1O[C@H](CO)[C@@H](O)[C@H](N)[C@H]1O` [Amikacin, amikacin] the “inhibition of angiogenin-induced cell proliferation” value (HUVE cells [3]) was “None”, the Cell number (HUVE cells [3]; [10]) was 61,000 ± 400 and the Cell number (HUVE cells [3]; [11]) was 51,700 ± 200. The “percent of cell number in the presence of 1 μg/ml angiogenin relative to the corresponding control” value (HUVE cells [3]) was 118%, the “inhibition of angiogenin-induced angiogenesis in CAM assay” value [4] was “do not inhibit angiogenin-induced angiogenesis” and the “cytotoxicity against HUVE cells” value (HUVE cells [5]) was “no cytotoxicity”. For the same molecule, the “significant inhibitory effect on cell proliferation induced by bFGF” value (from here on “significant inhibitory effect”) (HUVE cells [6]) was “no”, the “% Inhibition of bFGF-induced cell proliferation” value (HUVE cells [6]) was 11% and the “bFGF (10 ng/ml) Cell Numbers” value (HUVE cells [6]) was 97600 ± 1300. For the same molecule, the “Control (cell number without bFGF)” value (HUVE cells [6]) was 63000 ± 900.

For aFGF: acidic fibroblast growth factor, the Positive eggs ([7]; 49 total eggs) was 36 and the “% Positive” value ([7]; water 21) was 73%.

gentamicin was tested, and the “inhibition of angiogenin-induced cell proliferation” value (HUVE cells [3]) was “None”, the Cell number (HUVE cells [3]; [10]) was 55,700 ± 900 and the Cell number (HUVE cells [3]; [11]) was 45,700 ± 500. For the same molecule, the “percent of cell number in the presence of 1 μg/ml angiogenin relative to the corresponding control” value (HUVE cells [3]) was 121%, the “cytotoxicity against HUVE cells” value (HUVE cells [5]) was “no cytotoxicity” and the “significant inhibitory effect” value (HUVE cells [6]) was “no”. For the same molecule, the “% Inhibition of bFGF-induced cell proliferation” value (HUVE cells [6]) was 5%, the “bFGF (10 ng/ml) Cell Numbers” value (HUVE cells [6]) was 98400 ± 1900 and the “Control (cell number without bFGF)” value (HUVE cells [6]) was 61800 ± 1200.

With `O=c1c(-c2ccc(O)cc2)coc2cc(O)cc(O)c12` [Genistein, genistein] the “effect on nuclear translocation of 125I-angiogenin” value (from here on “effect on nuclear translocation”) [8] was “no effect; also recorded: do not inhibit nuclear translocation of angiogenin”, the inhibition at 100 µM ([8]; Homo sapiens, 0.5 h, read-out: % inhibition of nuclear translocation of angiogenin) was 0% and the “Nuclear 125I-angiogenin” value ([8]; inhibitor 100 μM) was 3300 ± 170 cpm.

`NC[C@H]1O[C@H](O[C@H]2[C@H](O)[C@@H](O[C@H]3O[C@H](CO)[C@@H](O)[C@H](N)[C@H]3O)[C@H](N)C[C@@H]2N)[C@H](O)[C@@H](O)[C@@H]1O` [Kanamycin, kanamycin] was tested, and the Cell number (HUVE cells [3]; [10]) was 58,900 ± 200, the Cell number (HUVE cells [3]; [11]) was 48,800 ± 400 and the “percent of cell number in the presence of 1 μg/ml angiogenin relative to the corresponding control” value (HUVE cells [3]) was 121%. For the same molecule, the “cytotoxicity against HUVE cells” value (HUVE cells [5]) was “no cytotoxicity”, the “% Inhibition of bFGF-induced cell proliferation” value (HUVE cells [6]) was 8% and the “bFGF (10 ng/ml) Cell Numbers” value (HUVE cells [6]) was 98000 ± 2500. The “Control (cell number without bFGF)” value (HUVE cells [6]) was 62600 ± 1100.

For `COc1ccc2c(c1)CC[C@@H]1[C@@H]2CC[C@]2(C)[C@@H](NCCCCCCN3C(=O)CCC3=O)CC[C@@H]12` [U-73343], the “effect on nuclear translocation” value [8] was “no effect”, the “Nuclear 125I-angiogenin” value ([8]; inhibitor 10 μM) was 2890 ± 100 cpm and the “% inhibition of nuclear translocation of angiogenin” value ([8]; inhibitor 10 μM) was 6%.

With EGF: epidermal growth factor the Positive eggs ([9]; 26 total eggs) was 18 and the “% Positive” value ([9]; water 21) was 69%.

In the case of `[H]/N=C(/N)N[C@H]1[C@H](O)[C@@H](O)[C@H](O[C@@H]2O[C@@H](C)[C@](O)(C=O)[C@H]2O[C@@H]2O[C@@H](CO)[C@H](O)[C@@H](O)[C@@H]2NC)[C@@H](N/C(N)=N\[H])[C@@H]1O` [Streptomycin, streptomycin], the “inhibition of angiogenin-induced cell proliferation” value (HUVE cells [3]) is reported as “None”, the Cell number (HUVE cells [3]; [10]) is reported as 59,900 ± 900 and the Cell number (HUVE cells [3]; [11]) is reported as 51,900 ± 1,300. For the same molecule, the “percent of cell number in the presence of 1 μg/ml angiogenin relative to the corresponding control” value (HUVE cells [3]) was 115%, the “inhibition of angiogenin-induced angiogenesis in CAM assay” value [4] was “do not inhibit angiogenin-induced angiogenesis” and the “cytotoxicity against HUVE cells” value (HUVE cells [5]) was “no cytotoxicity”. The “significant inhibitory effect” value (HUVE cells [6]) was “no”, the “% Inhibition of bFGF-induced cell proliferation” value (HUVE cells [6]) was 0% and the “bFGF (10 ng/ml) Cell Numbers” value (HUVE cells [6]) was 104200 ± 400. The “Control (cell number without bFGF)” value (HUVE cells [6]) was 62300 ± 600.

In the case of “Angiogenin: Human angiogenin (Met-1), recombinant product from an Escherichia coli expression system”, the “increase of cell number after 48 hr” value (HUVE cells [3]; angiogenin 1 μg/ml, no neomycin) is reported as 35% and the “% Positive (angiogenic response)” value ([4]; angiogenin 10 ng alone, water 20) is reported as 55%.

With `CN[C@@H]1C[C@H]2O[C@@](C)([C@@H]1OC)n1c3ccccc3c3c4c(c5c6ccccc6n2c5c31)C(=O)NC4` [Staurosporine, staurosporine] the “effect on nuclear translocation” value [8] was “only marginally inhibitory; also recorded: do not inhibit nuclear translocation of angiogenin” and the “Nuclear 125I-angiogenin” value ([8]; inhibitor 100 nM) was 2710 ± 70 cpm.

`COc1ccc2c(c1)CC[C@@H]1[C@@H]2CC[C@]2(C)[C@@H](NCCCCCCN3C(=O)C=CC3=O)CC[C@@H]12` [U-73122] was tested, and the “Nuclear 125I-angiogenin” value ([8]; inhibitor 10 μM) was 2140 ± 30 cpm and the “% inhibition of nuclear translocation of angiogenin” value ([8]; inhibitor 10 μM, 10 µM) was 30% and 31%.

For `NC[C@@H]1O[C@H](O[C@H]2[C@@H](O)[C@H](O[C@@H]3[C@@H](O)[C@H](N)C[C@H](N)[C@H]3O[C@H]3O[C@H](CO)[C@@H](O)[C@H](O)[C@H]3N)O[C@@H]2CO)[C@H](N)[C@@H](O)[C@@H]1O` [Paromomycin, paromomycin], the “inhibition of angiogenin-induced cell proliferation” value (HUVE cells [3]) was “did not inhibit angiogenin-induced cell proliferation; also recorded: no inhibitory activity at all”, the Cell number (HUVE cells [3]; [10]) was 58,900 ± 400 and the Cell number (HUVE cells [3]; [11]) was 50,900 ± 500. For the same molecule, the “percent of cell number in the presence of 1 μg/ml angiogenin relative to the corresponding control” value (HUVE cells [3]) was 116% and the “cytotoxicity against HUVE cells” value (HUVE cells [5]) was “no cytotoxicity”.
